This is an account of results in patent US20240000783A1, “COMBINATION THERAPY” (Pfizer Inc., priority 2020, published 2024).

The test system of this experiment is LNCaP prostate cancer cells (AR+ spheroids). In words: Multicellular tumor spheroid growth assay. The settings on record: Homo sapiens, single agent, read-out: SGI % (percent spheroid growth inhibition); for inhibition at 0.1 µM: 100 nM; for inhibition at 1 µM: 1000 nM. Type of experiment: cell-based. As for the experimental part: Example 1—Multicellular Tumor Spheroid Growth Assay in Human AR+ Prostate Cancer Cells (LNCaP) LNCaP prostate cancer cells were obtained from the ATCC and maintained in RPMI 1640 medium supplemented with 10% fetal bovine serum and penicillin-streptomycin as per ATCC guidelines. Cells were maintained in humidified incubator at 37° C. with 5% CO2. Spheroid assays were performed in 96 well ultralow attachment plates (ULA-96U) from Nexcelom & Thermo Fisher Scientific. […] To aid spheroid formation, dispensed cells were centrifuged at 220×g for 6 minutes in the ultralow attachment plates and allowed to form compact spheroids for 4 days prior to the initiation of treatment. After spheroids were formed, 150 μL of medium was aspirated from each well without disturbing the spheroid, and fresh RPMI medium of the same volume was added containing single agent compounds (palbociclib, COMPOUND A, or enzalutamide), or selected combinations thereof. Final concentrations of each compound in the wells were: 30 or 100 nM for palbociclib; 100, 300 or 1000 nM for COMPOUND A; and 1000 nM for enzalutamide. DMSO (0.01%) was used as the vehicle control. DMSO and all compounds were diluted in cell medium. Medium and compounds were replenished twice per week, with 3 and 4-day intervals. Replenishment was executed by aspirating 150 μL of medium per well without disturbing the spheroid and then adding the same volume of premixed medium/compound solution to spheroids. In some cases, an extended phase of treatment was followed by a ‘recovery’ phase where medium was replenished without addition of compounds. Spheroid diameter was quantified immediately following each medium change twice a week (on every 3rd or 4th day) throughout the duration of the assay. Growth of these MCTS was monitored over time to assess: (i) amplitude of response (SGI) and (ii) duration of response to single agents and combination treatments while on treatment. Average diameters of tumor spheroids were plotted in GraphPad Prism 8 and the area-under-curve (AUC) was calculated. AUC baseline was determined by the average tumor spheroid diameter at Day 0 in the vehicle (DMSO) controls. Spheroid growth inhibition, SGI, for all treatment arms was derived at the timepoint when the vehicle (DMSO) treated spheroids reach their maximal diameter (usually close to 1 mm but this can differ among cell lines); this corresponds to the last time point taken for the vehicle (DMSO) treated spheroids. SEM calculated based on n=10 to 12 wells per test group. Percent spheroid growth inhibition, or SGI %, was calculated as follows: SGI %=(1-AUC treatment/AUC DMSO)×100%.

`CC(C)n1c(C(C)(C)O)nc2c(F)cc(-c3nc(N[C@@H]4CCOC[C@H]4O)ncc3Cl)cc21` [COMPOUND A, 1,5-anhydro-3-({5-chloro-4-[4-fluoro-2-(2-hydroxypropan-2-yl)-1-(propan-2-yl)-1H-benzimidazol-6-yl]pyrimidin-2-yl}amino)-2,3-dideoxy-D-threo-pentitol]: the inhibition at 0.1 µM was found to be 27% and the inhibition at 1 µM is 53%. The inhibition at 0.3 µM (300 nM) was determined as 38%.
Regarding `CNC(=O)c1ccc(N2C(=S)N(c3ccc(C#N)c(C(F)(F)F)c3)C(=O)C2(C)C)cc1F` [enzalutamide, 4-[3-[4-cyano-3-(trifluoromethyl)phenyl]-5,5-dimethyl-4-oxo-2-thioxo-1-imidazolidinyl]-2-fluoro-N-methyl-benzamide], the inhibition at 1 µM was 46%.
Take `CC(=O)c1c(C)c2cnc(Nc3ccc(N4CCNCC4)cn3)nc2n(C2CCCC2)c1=O` [palbociclib]: the inhibition at 0.1 µM was 24%. In addition, the inhibition at 0.03 µM (30 nM) turned out to be 5%.
